Data from US7569729B2, “Stable atomoxetine hydrochloride, a process for the preparation thereof, and an analytical control of its stability” (Teva Pharmaceutical Fine Chemicals S.R.L., priority 2005, dated 2009).
Where “and” joins values, the source holds several entries; their conditions need not be identical. Identical values can stand only once. Counter-ions that a name gives are not always drawn.

Key:
[1] = Determination of pH of Atomoxetine Hydrochloride samples in aqueous solution; assay type: physicochemical; details: for aqueous pH test results: samples of the 40° C. stability test; for aqueous pH test results / pH of 2% (w/V) aqueous solution: Hydrochloride; for pH (2% in H2O): wet samples after filtration from crystallization medium
Experimental: The present invention provides a method for analyzing Atomoxetine Hydrochloride stability, comprising determining the pH of a sample of Atomoxetine Hydrochloride in aqueous solution. The process comprises dissolving Atomoxetine Hydrochloride in water at a temperature of about 20° C. to about 30° C. to obtain a solution and measuring the pH. Preferably, the dissolution of Atomoxetine Hydrochloride is accelerated by using a sonication. Preferably, the pH is measured with a glass electrode.
A 2 g sample of Atomoxetine Hydrochloride is dissolved in 100 ml of deionized water at temperature between about 20° C. and about 30° C. with sonication if required to obtain a complete solution. The pH is measured with a glass electrode at temperature of between about 20° C. and about 30° C.

[2] = Stability test (40° C., five days), impurities by HPLC; assay type: physicochemical
Experimental: At lower temperatures, e.g., 40° C., the stability of Atomoxetine Hydrochloride samples, having a water solution pH test of less than 4 are compromised, while Atomoxetine Hydrochloride samples, having a water solution pH test of greater than 4, are stable.

[3] = Stressed thermal stability test (70° C. for 58 hours), impurities by HPLC; assay type: physicochemical
Source text: However, the presence of free HCl in Atomoxetine Hydrochloride, which is easily detected by a pH test of a solution of Atomoxetine Hydrochloride in water, results in significant degradation of the Atomoxetine Hydrochloride, as described below.

[4] = Determination of pH of Atomoxetine Hydrochloride samples in aqueous solution; assay type: physicochemical; details: Example 2, after first water slurry and wash, 200 mg in 10 ml water
[5] = Drying wet Atomoxetine Hydrochloride in a vacuum oven at 70° C., impurities by HPLC; assay type: physicochemical; details: HPLC results, weight percent
Source text: These experimental results are in agreement with the previously described stability data.

[6] = Contact of dry Atomoxetine Hydrochloride with HCl gas flow at room temperature, impurities by HPLC
[7] = Stability test (40° C., 75% RH), impurities by HPLC; assay type: physicochemical
[8] = End of test time, Hydrochloride
[9] = After drying in vacuum oven at 70° C.
[10] = Before contact with HCl gas flow
[11] = After contact with HCl gas flow, room temperature

Row | Compound | aqueous pH test results [1] | Impurity (a) (HPLC A %) [2, 8] | Impurity (b) (HPLC A %) [2, 8] | Impurity (c) (HPLC A %) [2, 8] | Impurity (b) (HPLC A %) ([2]; Time zero) | Impurity (a) (HPLC A %) ([2]; Time zero, Hydrochloride) | Impurity (c) (HPLC A %) ([2]; Time zero, Hydrochloride) | pH of 2% (w/V) aqueous solution [1] | Impurity (a) (HPLC A %) [3, 8] | Impurity (b) (HPLC A %) [3, 8] | Impurity (c) (HPLC A %) [3, 8] | Impurity (a) (HPLC A %) ([3]; Time zero) | Impurity (b) (HPLC A %) ([3]; Time zero) | Impurity (c) (HPLC A %) ([3]; Time zero) | also measured
1 | CNCCC(Oc1ccccc1C)c1ccccc1 (single isomer, unassigned) [Sample 2, Atomoxetine Hydrochloride] | – | – | – | – | – | – | – | 5.8 | not detected | not detected | not detected | not detected | not detected | not detected | –
2 | CNCC[C@@H](Oc1ccccc1C)c1ccccc1 [Atomoxetine Hydrochloride, (R)(−)-n-methyl-3-(2-methylphenoxy)-3-phenylpropylamine] | – | – | – | – | – | – | – | – | – | – | – | – | – | – | pH [4]: 4.4; pH ([1]; Example 1, wet solids of two separate preparations, 2 g in 100 ml water): 2.39 and 2.40; pH ([1]; Example 2, after second water slurry and wash, wet, 2 g in 100 ml water): 5.9; pH ([1]; Example 3, after acetone washing and drying, about 2 percent w/V in water): 4.6
3 | CNCCC(Oc1ccccc1C)c1ccccc1 (stereo not shown) [Sample 5, Atomoxetine Hydrochloride] | – | – | – | – | – | – | – | – | – | – | – | – | – | – | pH (2% in H2O) [1]: 2.4; Impurity (a) [5, 9]: 0.31%; Impurity (b) [5, 9]: 0.04%; Impurity (c) [5, 9]: 0.12%; Impurity (a) ([5]; Before drying): not detected; Impurity (b) ([5]; Before drying): not detected; Impurity (c) ([5]; Before drying): not detected
4 | CNCCC(Oc1ccccc1C)c1ccccc1 (stereo not shown) [Sample 12, Atomoxetine Hydrochloride] | – | – | – | – | – | – | – | – | – | – | – | – | – | – | aqueous pH test result [1, 10]: 6.1; aqueous pH test result ([1]; after contact with HCl gas flow): 2.8; Impurity (a) [6, 11]: 0.10% HPLC A %; Impurity (b) [6, 11]: 0.032% HPLC A %; Impurity (c) [6, 11]: 1.54% HPLC A %; Impurity (a) [6, 10]: not detected; Impurity (b) [6, 10]: not detected; Impurity (c) [6, 10]: not detected
5 | CNCCC(Oc1ccccc1C)c1ccccc1 (single isomer, unassigned) [Sample 1, Atomoxetine Hydrochloride] | – | – | – | – | – | – | – | 2.4 | 10.5% HPLC A % | 14.2% HPLC A % | 26.2% HPLC A % | not detected | not detected | not detected | –
6 | CNCCC(Oc1ccccc1C)c1ccccc1 (single isomer, unassigned) [Sample 4, Atomoxetine Hydrochloride] | – | – | – | – | – | – | – | 5.9 | not detected | not detected | not detected | not detected | not detected | not detected | –
7 | CNCCC(Oc1ccccc1C)c1ccccc1 (stereo not shown) [Sample 11, Atomoxetine Hydrochloride] | – | – | – | – | – | – | – | – | – | – | – | – | – | – | Impurity (a) (HPLC A %) ([7]; 1 month): 0.02 HPLC A %; Impurity (b) (HPLC A %) ([7]; 1 month): 0.006 HPLC A %; Impurity (c) (HPLC A %) ([7]; 1 month): not detected; Impurity (a) (HPLC A %) ([7]; 2 months): 0.02 HPLC A %; Impurity (b) (HPLC A %) ([7]; 2 months): 0.007 HPLC A %; Impurity (c) (HPLC A %) ([7]; 2 months): not detected; Impurity (a) (HPLC A %) ([7]; 3 months): 0.02 HPLC A %; Impurity (b) (HPLC A %) ([7]; 3 months): 0.003 HPLC A %; Impurity (c) (HPLC A %) ([7]; 3 months): not detected; Impurity (a) (HPLC A %) ([7]; 6 month): 0.01 HPLC A %; Impurity (b) (HPLC A %) ([7]; 6 month): not detected; Impurity (c) (HPLC A %) ([7]; 6 month): not detected; Impurity (a) (HPLC A %) ([7]; Time zero): 0.01 HPLC A %; Impurity (b) (HPLC A %) ([7]; Time zero): not detected; Impurity (c) (HPLC A %) ([7]; Time zero): not detected
8 | CNCCC(Oc1ccccc1C)c1ccccc1 (single isomer, unassigned) [Sample 3, Atomoxetine Hydrochloride] | – | – | – | – | – | – | – | 6.0 | not detected | not detected | not detected | not detected | not detected | not detected | –
9 | CNCCC(Oc1ccccc1C)c1ccccc1 (stereo not shown) [Sample 6, Atomoxetine Hydrochloride] | – | – | – | – | – | – | – | – | – | – | – | – | – | – | pH (2% in H2O) [1]: 2.4

Further lines, with some results ahead:

Row | aqueous pH test results [1] | Impurity (a) (HPLC A %) [2, 8] | Impurity (b) (HPLC A %) [2, 8] | Impurity (c) (HPLC A %) [2, 8] | Impurity (b) (HPLC A %) ([2]; Time zero) | Impurity (a) (HPLC A %) ([2]; Time zero, Hydrochloride) | Impurity (c) (HPLC A %) ([2]; Time zero, Hydrochloride) | pH of 2% (w/V) aqueous solution [1] | Impurity (a) (HPLC A %) [3, 8] | Impurity (b) (HPLC A %) [3, 8] | Impurity (c) (HPLC A %) [3, 8] | Impurity (a) (HPLC A %) ([3]; Time zero) | Impurity (b) (HPLC A %) ([3]; Time zero) | Impurity (c) (HPLC A %) ([3]; Time zero) | Compound | also measured
10 | 2.4 | 0.633% HPLC A % | 0.0482% HPLC A % | 0.689% HPLC A % | not detected | 0.014% HPLC A % | 0.018% HPLC A % | – | – | – | – | – | – | – | CNCCC(Oc1ccccc1C)c1ccccc1 (stereo not shown) [Sample 7, Atomoxetine Hydrochloride] | –
11 | 4.4 | not detected | not detected | not detected | not detected | not detected | not detected | – | – | – | – | – | – | – | CNCCC(Oc1ccccc1C)c1ccccc1 (stereo not shown) [Sample 8, Atomoxetine Hydrochloride] | –
12 | 6.1 | not detected | not detected | not detected | not detected | not detected | not detected | – | – | – | – | – | – | – | CNCCC(Oc1ccccc1C)c1ccccc1 (stereo not shown) [Sample 10, Atomoxetine Hydrochloride] | –
13 | 4.8 | not detected | not detected | not detected | not detected | not detected | not detected | – | – | – | – | – | – | – | CNCCC(Oc1ccccc1C)c1ccccc1 (stereo not shown) [Sample 9, Atomoxetine Hydrochloride] | –
